Test results as given in patent US10597388B2, “Pyridazinone herbicides” (FMC CORPORATION, priority 2014, dated 2020).

Tests used:
Test in all cases: Test D controlled growth environment herbicide test, pre- and postemergence
Type in all cases: in vivo
[1] = test system: barley, spring (spring barley, Hordeum vulgare)
How it was run: (§1)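 Pre-emergence: seeds sown in silt loam soil were sprayed with compound in a non-phytotoxic solvent mix containing surfactant. Post-emergence: plants at 2 to 18 cm (1- to 4-leaf stage) in peat moss/vermiculite medium got the same formulation. Visual 0–100 rating versus controls after 14 to 21 d.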

[2] = test system: foxtail, green (green foxtail, Setaria viridis)
How it was run: as §1

[3] = test system: galium (catchweed bedstraw, Galium aparine)
How it was run: as §1

[4] = test system: field poppy (Papaver rhoeas)
How it was run: as §1

[5] = test system: lambsquarters (Chenopodium album)
How it was run: as §1

[6] = test system: blackgrass (Alopecurus myosuroides)
How it was run: as §1

[7] = test system: oilseed rape (Brassica napus)
How it was run: as §1

[8] = test system: bromegrass, downy (downy bromegrass, Bromus tectorum)
How it was run: as §1

[9] = test system: kochia (Kochia scoparia)
How it was run: as §1

[10] = test system: deadnettle (henbit deadnettle, Lamium amplexicaule)
How it was run: as §1

[11] = test system: canarygrass (Phalaris minor)
How it was run: as §1

[12] = test system: chickweed (common chickweed, Stellaria media)
How it was run: as §1

[13] = test system: wheat, spring (spring wheat, Triticum aestivum)
How it was run: as §1

[14] = test system: chamomile (scentless chamomile, Matricaria inodora)
How it was run: as §1

[15] = Postemergence, 31 g ai/ha, scale 0 to 100 (0 no effect, 100 complete control)
[16] = Postemergence, 125 g ai/ha, visual rating on scale 0 (no effect) to 100 (complete control), 14 to 21 d
[17] = Postemergence, 250 g ai/ha, scale 0 to 100 (0 no effect, 100 complete control)
[18] = Preemergence, 62 g ai/ha, scale 0 to 100 (0 no effect, 100 complete control)
[19] = Preemergence, 125 g ai/ha, scale 0 to 100 (0 no effect, 100 complete control)
[20] = Preemergence, 250 g ai/ha, scale 0 to 100, 0 no effect, 100 complete control
[21] = postemergence, 62 g ai/ha, scale 0 to 100, 0 no effect, 100 complete control

Compound: CCCC(=O)Oc1c(C)nn(C)c(=O)c1-c1c(C)sc2ccc(C)cc12 [Compound 105]
- Barley, Spring plant response rating [1, 15]: 0
- Plant response rating, Barley, Spring [1, 16]: 10
- Plant response rating, Barley, Spring [1, 17]: 15
- Plant response rating (scale of 0 to 100), Barley, Spring ([1]; Preemergence, 31 g ai/ha): 0
- Plant response rating, Barley, Spring [1, 18]: 0
- Plant response rating, Barley, Spring [1, 19]: 0
- Plant response rating, Barley, Spring [1, 20]: 20
- Plant response rating, Barley, Spring [1, 21]: 5
- Foxtail, Green plant response rating [2, 15]: 70
- Plant response rating, Foxtail, Green [2, 16]: 75
- Plant response rating, Foxtail, Green [2, 17]: 80
- Plant response rating (scale of 0 to 100), Foxtail, Green ([2]; Preemergence, 31 g ai/ha): 45
- Plant response rating (scale of 0 to 100), Foxtail, Green ([2]; Preemergence, 62 g ai/ha): 55
- Plant response rating, Foxtail, Green [2, 19]: 65
- Plant response rating, Foxtail, Green [2, 20]: 100
- Plant response rating, Foxtail, Green [2, 21]: 70
- Galium plant response rating [3, 15]: 85
- Plant response rating, Galium [3, 16]: 95
- Plant response rating, Galium [3, 17]: 100
- Plant response rating (scale of 0 to 100), Galium ([3]; Preemergence, 31 g ai/ha): 80
- Plant response rating (scale of 0 to 100), Galium ([3]; Preemergence, 62 g ai/ha): 95
- Plant response rating, Galium [3, 19]: 85
- Plant response rating, Galium [3, 20]: 100
- Plant response rating, Galium [3, 21]: 95
- Field Poppy plant response rating [4, 15]: 70
- Plant response rating, Field Poppy [4, 16]: 80
- Plant response rating, Field Poppy [4, 17]: 80
- Plant response rating (scale of 0 to 100), Field Poppy ([4]; Preemergence, 31 g ai/ha): 100
- Plant response rating (scale of 0 to 100), Field Poppy ([4]; Preemergence, 62 g ai/ha): 100
- Plant response rating, Field Poppy [4, 19]: 100
- Plant response rating, Field Poppy [4, 20]: 100
- Plant response rating, Field Poppy [4, 21]: 75
- Lambsquarters plant response rating [5, 15]: 85
- Plant response rating, Lambsquarters [5, 16]: 90
- Plant response rating, Lambsquarters [5, 17]: 95
- Plant response rating (scale of 0 to 100), Lambsquarters ([5]; Preemergence, 31 g ai/ha): 95
- Plant response rating (scale of 0 to 100), Lambsquarters ([5]; Preemergence, 62 g ai/ha): 100
- Plant response rating, Lambsquarters [5, 19]: 100
- Plant response rating, Lambsquarters [5, 20]: 100
- Plant response rating, Lambsquarters [5, 21]: 95
- Blackgrass plant response rating [6, 15]: 15
- Plant response rating, Blackgrass [6, 16]: 65
- Plant response rating, Blackgrass [6, 17]: 65
- Plant response rating (scale of 0 to 100), Blackgrass ([6]; Preemergence, 31 g ai/ha): 35
- Plant response rating, Blackgrass [6, 18]: 50
- Plant response rating, Blackgrass [6, 19]: 60
- Plant response rating, Blackgrass [6, 20]: 75
- Plant response rating, Blackgrass [6, 21]: 25
- Oilseed Rape plant response rating [7, 15]: 0
- Plant response rating, Oilseed Rape [7, 16]: 25
- Plant response rating, Oilseed Rape [7, 17]: 60
- Plant response rating (scale of 0 to 100), Oilseed Rape ([7]; Preemergence, 31 g ai/ha): 55
- Plant response rating (scale of 0 to 100), Oilseed Rape ([7]; Preemergence, 62 g ai/ha): 60
- Plant response rating, Oilseed Rape [7, 19]: 50
- Plant response rating, Oilseed Rape [7, 20]: 50
- Plant response rating, Oilseed Rape [7, 21]: 15
- Bromegrass, Downy plant response rating [8, 15]: 10
- Plant response rating, Bromegrass, Downy [8, 16]: 25
- Plant response rating, Bromegrass, Downy [8, 17]: 65
- Plant response rating (scale of 0 to 100), Bromegrass, Downy ([8]; Preemergence, 31 g ai/ha): 35
- Plant response rating, Bromegrass, Downy [8, 18]: 65
- Plant response rating, Bromegrass, Downy [8, 19]: 70
- Plant response rating, Bromegrass, Downy [8, 20]: 75
- Plant response rating, Bromegrass, Downy [8, 21]: 20
- Kochia plant response rating [9, 15]: 85
- Plant response rating, Kochia [9, 16]: 95
- Plant response rating, Kochia [9, 17]: 100
- Plant response rating (scale of 0 to 100), Kochia ([9]; Preemergence, 31 g ai/ha): 10
- Plant response rating (scale of 0 to 100), Kochia ([9]; Preemergence, 62 g ai/ha): 50
- Plant response rating, Kochia [9, 19]: 95
- Plant response rating, Kochia [9, 20]: 100
- Plant response rating, Kochia [9, 21]: 95
- Deadnettle plant response rating [10, 15]: 10
- Plant response rating, Deadnettle [10, 16]: 20
- Plant response rating, Deadnettle [10, 17]: 30
- Plant response rating (scale of 0 to 100), Deadnettle ([10]; Preemergence, 62 g ai/ha): 10
- Plant response rating, Deadnettle [10, 19]: 15
- Plant response rating, Deadnettle [10, 20]: 65
- Plant response rating, Deadnettle [10, 21]: 10
- Canarygrass plant response rating [11, 15]: 40
- Plant response rating, Canarygrass [11, 16]: 75
- Plant response rating, Canarygrass [11, 17]: 80
- Plant response rating (scale of 0 to 100), Canarygrass ([11]; Preemergence, 31 g ai/ha): 85
- Plant response rating (scale of 0 to 100), Canarygrass ([11]; Preemergence, 62 g ai/ha): 95
- Plant response rating, Canarygrass [11, 19]: 95
- Plant response rating, Canarygrass [11, 20]: 98
- Plant response rating, Canarygrass [11, 21]: 50
- Chickweed plant response rating [12, 15]: 90
- Plant response rating, Chickweed [12, 16]: 100
- Plant response rating, Chickweed [12, 17]: 100
- Plant response rating (scale of 0 to 100), Chickweed ([12]; Preemergence, 31 g ai/ha): 100
- Plant response rating (scale of 0 to 100), Chickweed ([12]; Preemergence, 62 g ai/ha): 100
- Plant response rating, Chickweed [12, 19]: 100
- Plant response rating, Chickweed [12, 20]: 100
- Plant response rating, Chickweed [12, 21]: 90
- Wheat, Spring plant response rating [13, 15]: 0
- Plant response rating, Wheat, Spring [13, 16]: 20
- Plant response rating, Wheat, Spring [13, 17]: 25
- Plant response rating (scale of 0 to 100), Wheat, Spring ([13]; Preemergence, 31 g ai/ha): 0
- Plant response rating (scale of 0 to 100), Wheat, Spring ([13]; Preemergence, 62 g ai/ha): 0
- Plant response rating, Wheat, Spring [13, 19]: 0
- Plant response rating, Wheat, Spring [13, 20]: 40
- Plant response rating, Wheat, Spring [13, 21]: 10
- Chamomile plant response rating [14, 15]: 80
- Plant response rating, Chamomile [14, 16]: 100
- Plant response rating, Chamomile [14, 17]: 100
- Plant response rating, Chamomile [14, 21]: 85
